Reference: publication PMC11093748, “De novo identification of CD4^+ T cell epitopes” (Nature Methods, 2024)

Legend:
TCR3 = test: Single SABR-II co-incubation, NFAT-GFP Jurkat; assay type: cell-based, mouse; settings: TCR 3, Fig 5C
From the text: Given the predominance of HIP-reactive TCRs, we hypothesized that there may be other TCRs that respond to HIPs that were not encoded in our initial library configuration. While the initial I-Ag7 SABR-II library consisted of a number of HIPs, HIP formation is thought to be more widespread in pancreatic β-cells[52],[70]. Therefore, we sought to construct a defined, HIP-focused library to probe whether there were any undiscovered HIP-reactive TCRs that could be recognized by the clonally expanded TCR in our dataset. To test this, we utilized a published proteomic dataset, which predicted that several proteins that were highly expressed in secretory granules of β-cells may contribute to HIP formation. Using their predictions, we built a theoretical HIP library, in which all possible ‘left’ halves of the insulin C chain derived from natural cleavage products were fused to ‘right’ halves derived from secretory granule proteins (Fig. 5a). This 2,561-epitope library (12–25 amino acids per epitope) consisted of only HIPs and a small number of positive control epitopes (Supplementary Table 5). We screened the top three clonally expanded TCRs (TCR1, TCR2 and TCR3) against this library, as these TCRs had not been de-convoluted using the original library. […] To confirm that the HIP itself was important for the cognate interaction, we cloned single 14-mer epitopes into SABR-IIs consisting of seven amino acids of the left portion of the HIP and seven amino acids of the right portion of the HIP. In this way, no nine amino acids from either peptide sequence alone could occupy the binding pocket of I-Ag7, ensuring that TCR reactivity spanned the HIP junction. […] Of note, in all the epitopes that were tested, the ‘left’ half derived from insulin C was conserved, whereas the ‘right’ halves were derived from several other proteins (Fig. 5d). […] Moreover, the promiscuous binding of TCR3 to HIPs corroborates evidence from other NOD mouse-derived TCRs reacting to multiple HIPs[72].
(§1) For SABR library screens, 3 × 10^6 NFAT–GFP Jurkat cells expressing the SABR library were labeled with CellTrace Violet (BioLegend) according to the manufacturer’s protocol before incubation with 3 × 10^6 Jurkat cells expressing the TCR of interest. These mixtures were incubated in a six-well plate for 16–20 h. Cells were stained with anti-CD69-APC-Cy7 where indicated (BioLegend) and the top 1–2% of GFP^+CD69^+ cells were sorted for genomic DNA extraction, indexing and sequencing (see below). Multiplexed assays were scaled on a per-TCR basis (for example 3 × 10^6 for each of three TCRs against 9 × 10^6 library cells). For single SABR assays, unless otherwise defined, 5 × 10^5 SABR expressing NFAT–GFP Jurkat cells (or 5KC cells) were labeled with CellTrace Violet (BioLegend) according to the manufacturer’s protocol before incubation with 5 × 10^5 TCR-expressing Jurkat cells (or 5KC cells) in a round-bottom 96-well plate for 16–20 h. Cells were stained with anti-CD69-APC-Cy7 when indicated and acquired on the Attune NxT flow cytometer (Thermo Fisher Scientific). All flow analysis was performed using FlowJo (BD). For Daudi cell co-culture, 1 × 10^6 Jurkat cells expressing the TCR of interest were incubated with 1 × 10^6 Daudi cells expressing a SABR of interest for 3 days. On day 3, cells were labeled with anti-RT1B-PE and anti-Fas-APC-Cy7 before being acquired on the Attune NxT flow cytometer.

5KC cells, No TCR = test: mIL-2 ELISA, 5KC cells without TCR with SABR NFAT-GFP Jurkat cells; assay type: cell-based, mouse; settings: murine IL-2 ELISA, 24 hr co-incubation
GSE.20D11 TCR = test: HLA-DQ8 SABR-II (+ HLA-A2.1 SABR) library screen, enrichment score; assay type: cell-based, human; settings: combined class I and II library
From the text: To test whether HLA-DQ8 SABR-II could be used for antigen discovery, we curated a list of insulin B, insulin C and HIP epitopes published by Wiles et al.[58] and cloned them into the DQ8 SABR-II backbone using the same pooled cloning strategy as the I-Ag7 SABR-II library (Supplementary Table 2). Furthermore, we combined SABR-I (the HLA-A*0201 library reported in our previous work[27]) and SABR-II libraries at a cellular level and screened against the GSE.20D11 TCR.
To generate the I-Ag7 restricted SABR library, we combined all Immune Epitope Database epitopes with a published immunopeptidome generated by Wan et al.[51]. Sequences were filtered remove all post-translational modifications except deamidation and HIPs and trimmed between 9–25 amino acid lengths. For the insulin C HIP and HLA-DQ8 library, non-contiguous epitopes from Wiles et al.[66] as well as all Immune Epitope Database epitopes were combined to generate the epitope list. Epitope sequences were back-translated using the backtranslate_fast.py script.
as §1
Genomic DNA was extracted from sorted cells immediately after sorting, using the PureLink genomic DNA extraction kit (Life Technologies). The integrated SABR vectors were amplified with KOD polymerase (Millipore) and two rounds of amplification. In the first round, IDT-UD-SABR-C2-F and IDT-UD-SABR-C2-R primers were used to amplify the epitope. In the second round, UDI0001-R and UDI0001-F primers (representative of index 1) were used to add Illumina unique dual indexes (UDIs) to the amplicons. A different UDI was used for each sample. The reactions were pooled and purified with the NucleoSpin gel and PCR purification kit (Takara). The purified PCR product was checked before sequencing using 2% agarose gel and subjected to sequencing on a HiSeq4000 (Fulgent Genetics). Unaligned reads generated by the sequencer were stored in FASTQ files. FASTQ files were concatenated to generate one file for read1 and read2 each. The sequences were demultiplexed into individual indexes using demultiplex_dual.py. Epitopes were extracted and scored using epitope_extract_fastq_v1.1.py and merge_counts_split_v2.1.py. The ES was calculated using Microsoft Excel (Microsoft) workbooks.

| Sequence | %GFP+CD69+ cells of SABR-NFAT-GFP-Jurkat cells (TCR3; technical replicate 1) [%] | %GFP+CD69+ cells of SABR-NFAT-GFP-Jurkat cells (TCR3; technical replicate 2) [%] | IL-2 secretion (5KC cells, No TCR; technical replicate 1) | IL-2 secretion (5KC cells, No TCR; technical replicate 2) | enrichment in screen (in words) (GSE.20D11 TCR) |
| --- | --- | --- | --- | --- | --- |
| LQTLALNAARDP | 0.94 | 0.89 | – | – | – |
| SHLVEALYLVCGERG | – | – | 2.192 | 4.996 | enriched at a high confidence level |
